The results in this text go back to paper PMC12006171, “Marsupial cathelicidins: characterization, antimicrobial activity and evolution in this unique mammalian lineage” (Frontiers in Immunology, 2025).

≈ marks a conversion by molar mass, not a printed value. Like-named read-outs stand apart in the source and are kept apart here. Where a SMILES comes first, the peptide text is derived from it. Where only a bound is given, the exact number is not on record here.

Common to all, as to assay: microbe, parasite or virus in culture
Assay type in all cases: cell-based

The subject of assay [1] is Escherichia coli ATCC 25922. To be noted: ATCC 25922. The procedure, abridged:
(§1)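 Each isolate was exposed to twofold peptide dilutions (final 64-0.125μg/mL) in Mueller Hinton broth, optionally supplemented with calcium and magnesium or 10% lysed horse blood. The MIC was taken as the lowest concentration lacking visible growth after 20–24 hours at 35°C.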

Assay [2] has as its system Escherichia coli clinical isolate - animal. As to conditions: clinical isolate - animal. The procedure, abridged:
as §1

Assay [3] concerns Pseudomonas aeruginosa ATCC 27853. As to conditions: ATCC 27853; for MIC: read-out: MIC P. aeruginosa ATCC. The method, boiled down: as §1
The test system of assay [4] is Pseudomonas aeruginosa clinical isolate - animal. To be noted: clinical isolate - animal. The method, boiled down: as §1
Assay [5] relates to Staphylococcus aureus ATCC 29213. To be noted: ATCC 29213; read-out: MIC S. aureus ATCC. The method, boiled down: as §1
Assay [6] relates to Staphylococcus aureus clinical isolate - animal. As to conditions: clinical isolate - animal; read-out: MIC S. aureus. The procedure, abridged:
as §1

The test system of assay [7] is Streptococcus agalactiae ATCC 12386. To be noted: ATCC 12386; for MIC: read-out: MIC S. agalactiae ATCC. The procedure: (§2) Antimicrobial testing of 78 cathelicidin MPs was performed in two phases as outlined in Figure 1 . In phase I, 40 peptides (27 extant and 13 ancestral) were selected for testing based on rank (outlined above) and similarity to published marsupial cathelicidins with known antimicrobial activity ([33], [41]–[43]). These peptides were tested against nine bacteria (Staphylococcus aureus ATCC 29213 and clinical isolate, Escherichia coli ATCC 25922 and clinical isolate, Pseudomonas aeruginosa ATCC 27853 and clinical isolate, Streptococcus agalactiae ATCC 12386 and clinical isolate, Streptococcus pneumoniae ATCC 49619) and three fungi (Candida krusei ATCC 6258, Candida parapsilosis ATCC 22019, and Candida albicans clinical isolate). Details regarding these strains are available in Supplementary Table 4 . The antimicrobial activity of cathelicidins was determined as the minimum inhibitory concentration (MIC), which was the lowest concentration of cathelicidin that prevented visible bacterial or fungal growth, relative to the negative control. […] Minimum bactericidal concentration (MBC) and/or minimum fungicidal concentration (MFC) was conducted to determine microbicidal versus static action. Activity against S. aureus ATCC, E. coli ATCC, and Pseudomonas aeruginosa ATCC 27853 was examined in the presence of divalent cations to determine the impact of inhibitors.
(§3) Antimicrobial activity was determined using a broth microdilution susceptibility assay in 96 well polypropylene plates according to Clinical Laboratory Standards Institute guidelines M07-A and M26A as described previously ([33], [42], [43]). The bacterial and fungal isolates from humans and animals used in this study are outlined in Supplementary Table 4 . Only yeasts were included in the panel of fungi as they have been used in the susceptibility testing of eutherian ([3], [81]–[83]) and other marsupial cathelicidins previously ([33], [42], [43]). Cathelicidin mature peptides were solubilized in DMSO and serially diluted in duplicate from 128-0.25μg/mL in a final volume of 100µL. For bacteria, cathelicidins were diluted in Mueller Hinton Broth (MHB) with or without 10% lysed horse blood, and with (MH II B) or without (MHB) calcium and magnesium cations. For fungi, cathelicidins were diluted in Roswell Park Memorial Institute medium (RPMI)-1640 MOPS. Ampicillin or tetracycline were included as a positive control for Gram-positive and -negative bacteria respectively, while amphotericin B was used for fungi. A media-only negative control and growth control (no cathelicidin) were also included on each plate. Bacteria were sub-cultured on Muller Hinton agar (MHA) or sheep blood agar (BA), and fungi on Sabouraud dextrose agar (SAB), 20–24 hours prior to the test. Colonies were suspended in saline, the concentration adjusted to a 0.5 McFarland standard, and then diluted in media to a concentration of 1.0 x 10^6 cells/mL. Then, 100μL was added to each well of the cathelicidin dilution plate, giving a final inoculum density of 5 x 10^5 CFU/mL and cathelicidin concentration of 64-0.125μg/mL. Colony counts were performed on MHA/BA/SAB to confirm inoculum density. All plates were incubated at 35°C for 20–24 hours, depending on the strain.
(§4) Colonies were counted and compared to the colony count of the starting inoculum.

Assay [8] deals with Streptococcus agalactiae Clinical isolate - animal. To be noted: clinical isolate - animal; for MIC: read-out: MIC S. agalactiae. How it is done:
as §2, §3, §4

For assay [9], the system named is Streptococcus pneumoniae ATCC 49619. As to conditions: ATCC 49619; for MIC: read-out: MIC S. pneumoniae ATCC. How it is done: as §2, §3, §4
[10] abbreviates: read-out: MIC in the presence of cations E. coli ATCC.

Take `CC[C@H](C)[C@H](NC(=O)[C@H](CC(=O)O)NC(=O)[C@H](CCCNC(=N)N)NC(=O)[C@H](CC(C)C)NC(=O)[C@H](CCCCN)NC(=O)[C@H](CCCNC(=N)N)NC(=O)[C@H](Cc1ccc(O)cc1)NC(=O)[C@H](CCCCN)NC(=O)[C@H](CCC(=O)O)NC(=O)[C@H](CC(C)C)NC(=O)[C@H](CC(C)C)NC(=O)[C@@H](NC(=O)[C@H](CCCNC(=N)N)NC(=O)[C@H](Cc1ccc(O)cc1)NC(=O)[C@H](CCCCN)NC(=O)[C@H](CCC(N)=O)NC(=O)[C@H](Cc1ccc(O)cc1)NC(=O)[C@@H](NC(=O)[C@H](CC(C)C)NC(=O)[C@@H](N)CC(N)=O)[C@@H](C)CC)[C@@H](C)CC)C(=O)N[C@@H](Cc1ccccc1)C(=O)N[C@@H](CO)C(=O)NCC(=O)O` [MAP6] (H-NLIYQKYRILLEKYRKLRDIFSG-OH): the “MBC E. coli ATCC” value in assay [1] is 10.9 (10.9)^10.9 µM. Also, the “MIC E. coli ATCC” value in assay [1] was 10.9 (10.9)^10.9 µM. Further, the “MIC in the presence of cations E. coli ATCC” value in assay [1] was 10.9 (10.9)^10.9 µM. For the same compound, in assay [2], the “MBC E. coli” value is on record as 10.9 (10.9)^10.9 µM. For the same compound, the “MIC E. coli” value in assay [2] was 10.9 (10.9)^10.9 µM. In assay [2], the “MIC in the presence of cations E. coli” value is reported as 10.9 (10.9)^10.9 µM. Further, the MIC in [3], in assay [4] (read-out: MIC P. aeruginosa), in assay [5], in [6], in assay [7] and in assay [8] was more than 21.8 µM each time. Further, in assay [9], the MIC is given as more than 21.8 µM.

In the case of `CC[C@H](C)[C@H](NC(=O)[C@H](C)NC(=O)[C@H](CC(N)=O)NC(=O)[C@H](CCCCN)NC(=O)[C@H](CC(C)C)NC(=O)[C@@H](NC(=O)[C@H](CC(N)=O)NC(=O)[C@H](CCCCN)NC(=O)[C@@H](NC(=O)[C@H](CCCCN)NC(=O)[C@H](CC(=O)O)NC(=O)CNC(=O)[C@H](C)NC(=O)[C@H](CCCCN)NC(=O)[C@H](CCCCN)NC(=O)[C@H](CC(C)C)NC(=O)[C@H](CC(C)C)NC(=O)[C@H](CC(N)=O)NC(=O)[C@H](CCCCN)NC(=O)[C@H](Cc1ccccc1)NC(=O)[C@H](CCCCN)NC(=O)[C@H](CCC(=O)O)NC(=O)[C@H](Cc1ccccc1)NC(=O)[C@@H](NC(=O)[C@H](CCCNC(=N)N)NC(=O)[C@H](CC(C)C)NC(=O)[C@H](CCCNC(=N)N)NC(=O)[C@@H](N)CCCCN)[C@@H](C)CC)[C@@H](C)CC)[C@@H](C)O)C(=O)N[C@@H](CC(N)=O)C(=O)NCC(=O)N[C@@H](CC(C)C)C(=O)N[C@@H](CC(C)C)C(=O)N[C@@H](CO)C(=O)N1CCC[C@H]1C(=O)N[C@H](C(=O)NCC(=O)N[C@@H](CCCNC(=N)N)C(=O)O)[C@@H](C)CC` [MAP7] (H-KRLRIFEKFKNLLKKAGDKIKNTLKNAINGLLSPIGR-OH), the “MBC E. coli ATCC” value in assay [1] amounted to 3.7 µM (≈ 15.7 µg/mL). For the same compound, the MIC in assay [1] (read-out: MIC E. coli ATCC) amounted to 1.8 µM (≈ 7.63 µg/mL). For the same compound, the MIC in [1] (setting [10]) worked out at 1.8 µM. In assay [2], the “MBC E. coli” value is 3.7 (3.7)^3.7 µM, the “MIC E. coli” value is listed as 3.7 (3.7)^3.7 µM and the “MIC in the presence of cations E. coli” value is recorded as 3.7 (3.7)^3.7 µM. In addition, in [3], the “MBC P. aeruginosa ATCC” value was 7.5 (7.5)^7.5 µM, the “MIC P. aeruginosa ATCC” value is 7.5 (7.5)^7.5 µM and the “MIC in the presence of cations P. aeruginosa ATCC” value is listed as 7.5 (7.5)^7.5 µM. The “MBC P. aeruginosa” value in [4] stood at 64 µg/mL (≈ 15.1 µM). Further, in [4] (read-out: MIC P. aeruginosa), the MIC was determined as 7.5 µM (≈ 31.8 µg/mL). Besides, the MIC in assay [4] (read-out: MIC in the presence of cations P. aeruginosa) was determined as 7.5 µM. In assay [5], the MIC is reported as more than 15.1 µM. Further, the MIC in assay [6] is given as more than 15.1 µM. In assay [7], this compound returned an MBC S. agalactiae ATCC of 15.1 µM (≈ 64 µg/mL) and an MIC S. agalactiae ATCC of 15.1 µM (≈ 64 µg/mL). In [8], the MBC S. agalactiae worked out at 15.1 µM (≈ 64 µg/mL) and the MIC S. agalactiae was found to be 15.1 µM (≈ 64 µg/mL). Further, in [9], the MBC S. pneumoniae ATCC is 7.5 µM (≈ 31.8 µg/mL) and the MIC S. pneumoniae ATCC is 7.5 µM (≈ 31.8 µg/mL).

As for `CC[C@H](C)[C@H](NC(=O)[C@H](C)NC(=O)[C@H](CC(N)=O)NC(=O)[C@H](CCCCN)NC(=O)[C@H](Cc1ccccc1)NC(=O)[C@@H](NC(=O)[C@H](CC(=O)O)NC(=O)[C@H](CCCCN)NC(=O)[C@@H](NC(=O)[C@H](CCCCN)NC(=O)[C@H](CC(=O)O)NC(=O)[C@H](CO)NC(=O)[C@H](C)NC(=O)[C@H](CCCCN)NC(=O)[C@H](CCCCN)NC(=O)[C@H](CC(C)C)NC(=O)[C@H](CC(C)C)NC(=O)[C@H](CC(N)=O)NC(=O)[C@H](CCCCN)NC(=O)[C@@H](NC(=O)[C@H](CCCCN)NC(=O)[C@H](CCC(=O)O)NC(=O)[C@@H](NC(=O)[C@@H](NC(=O)[C@H](CCCNC(=N)N)NC(=O)[C@H](CC(C)C)NC(=O)[C@H](CCCNC(=N)N)NC(=O)[C@H](CCCCN)NC(=O)[C@@H](N)C(C)C)[C@@H](C)CC)C(C)C)[C@@H](C)CC)[C@@H](C)CC)[C@@H](C)O)C(=O)N[C@@H](CC(N)=O)C(=O)N[C@@H](CO)C(=O)N[C@@H](CC(C)C)C(=O)N[C@@H](CC(C)C)C(=O)N[C@@H](CO)C(=O)O` [MacroCath7] (H-VKRLRIVEKIKNLLKKASDKIKDTFKNAINSLLS-OH), in assay [1], the “MBC E. coli ATCC” value is given as 16.3 µM (≈ 64 µg/mL). For the same compound, the MIC in assay [1] (read-out: MIC E. coli ATCC) is 8.1 µM (≈ 31.8 µg/mL); in assay [1] (setting [10]) it was 8.1 µM; in [3], more than 16.3 µM; in assay [4] (read-out: MIC P. aeruginosa), more than 16.3 µM; in assay [5], more than 16.3 µM; in assay [6], more than 16.3 µM. In addition, the MIC in assay [7], in [8] and in assay [9] was more than 16.3 µM throughout. In addition, the “MBC E. coli” value in [2] is recorded as 16.3 (16.3)^16.3 µM. Moreover, the “MIC E. coli” value in assay [2] is reported as 16.3 (16.3)^16.3 µM. Also, the “MIC in the presence of cations E. coli” value in assay [2] is on record as 16.3 (16.3)^16.3 µM.
